The results in this text go back to ChEMBL document CHEMBL1151858, “4-Piperidines and 3-pyrrolidines as dual serotonin and noradrenaline reuptake inhibitors: design, synthesis and structure-activity relationships” (Bioorg Med Chem Lett, 2009).

Bounds are passed on as bounds.

One data set can be described thus: in vitro. Conditions: human, liver microsomes.
A short description of data set [1]: Elimination half life in rat at 5 mg/kg, iv administered as single dose. Also noted: dose 5 mg/kg, route intravenous. Conditions: in vivo, read-out: beta t1/2 (converted). Type of data set: ADME, organism-based.
The nature of data set [2]: Plasma clearance in rat at 5 mg/kg, iv administered as single dose. Type of data set: ADME, organism-based. Details: dose 5 mg/kg, route intravenous.
Data set [3] is described as follows: Octanol-water distribution coefficient, log D at pH 7.4. Type of data set: physicochemical.
The nature of data set [4]: Volume of distribution in rat at 5 mg/kg, iv administered as single dose. In kind it is ADME, organism-based. Also noted: dose 5 mg/kg, route intravenous. Conditions: in vivo.

Molecule `CNCC[C@H](Oc1cccc2ccccc12)c1cccs1` [DULOXETINE] returned a half-life in the data set “in vitro” of over 2 h.
Take `Clc1cccc(OC(c2cccnc2)C2CCNCC2)c1Cl` (single isomer, unassigned; enantiomer 1): the half-life in data set [1] was 2 h; in the data set “in vitro”, over 2 h. Also, the clearance – broadly, the volume of plasma or blood freed of the substance per unit of time – in data set [2] was 180 mL/min/kg. In data set [3], the logD (commonly lipophilicity at a set pH, counting ionised and neutral species) was 1.2. For the same molecule, the distribution volume (Vd) – broadly, a proportionality between amount in the body and measured concentration, not a real space – in data set [4] was 33 L/kg.
Take `Cc1ccc(C(Oc2cccc(Cl)c2Cl)C2CCNCC2)cn1` (centres undefined): the half-life in “in vitro” was over 2 h.
As to `Clc1cccc(OC(c2ccccn2)[C@H]2CCNC2)c1Cl` (some centres undefined), in the data set “in vitro”, the half-life is over 2 h. Further, the logD in data set [3] stood at 0.9.
